Read-outs that look alike come from different tables or passages of the source.
Legend:
LPS-stimulated PBMCs = test: Cytokine production in LPS-stimulated human PBMCs (ELISA); assay type: cell-based; settings: for inhibition at 2.5 µM / inhibition at 25 µM: Homo sapiens, PBMC
Source text: MIF is secreted by monocytes/macrophages, activated T cells and several effector cells that play an important role in the perpetuation of inflammatory responses of the disease pathogenesis of several autoimmune and inflammatory disorders. MIF promotes the production of proinflammatory mediators such as tumor necrosis factor-α (TNF-α), interleukin (IL)-1β, IL-6 and IL-8 acting in an autocrine and paracrine function in the induction of proinflammatory responses. MIF has also been reported to stimulate the production of IL-17, a T helper 17 (Th17)-specific cytokine critical to the pathogenesis of several autoimmune and inflammatory diseases. […] Mono-Mac-6 Cells: The cellular efficacy of compound candidates is determined using the human monocytic cell line, Mono-Mac-6 cells (MM6 cells) as it has been shown that MM6 cells abundantly express MIF receptors CD74 and CXCR4. MIF-mediated signal transduction through these receptors may be important for the production of inflammatory mediators, including TNF-α, IL-1β, IL-6, IL-8, interferon-γ (IFN-γ) and prostaglandin E2 (PGE2) in these cells. To induce the production of inflammatory mediators, MM6 cells will be plated at a final concentration of 5×10^5 cells/ml in RPMI 1640 medium containing 1% heat-inactivated low-pyrogen fetal bovine serum, 2 mM GlutaMAX-I, 1% non-essential amino acids, 1% sodium pyruvate, 100 units/ml penicillin G and 100 μg/ml streptomycin (Gibco BRL Life Technologies). Cells will be stimulated with 100 ng/ml rhMIF purchased commercially or generated in house with or without inhibitor for 20 h at 37° C. with 5% CO2. The supernatants are stored at […] until they are to be assayed. The levels of inflammatory mediators will be determined using commercial :ELISA kits (eBiosciences). Human Peripheral Blood Mononuclear Cells (PBMCs): The cellular efficacy of compound candidates in inhibiting the production of proinflammatory mediators TNF-α, IL-1β, IL-6 and IL-8 following lipopolysaccharide (LPS) and rhMIF stimulation, and the production of T helper 17 (Th17)-specific cytokines IL-17F and IL-22 following anti-CD3/anti-CD28 stimulation, are determined in human PBMCs. To induce the production of proinflammatory cytokine mediators, cryopreserved human PBMCs (Cellular Technology Ltd.) are plated at a final concentration of 2×10^5 cells/ml in RPMI 1640 medium containing 1% heat-inactivated fetal bovine serum, 1% L-Glutamine and 1% Penicillin/Streptomycin (Lonza). Cells are pre-incubated with or without inhibitor compounds dissolved in DMSO for 1 hour, then stimulated with LPS (Sigma Aldrich) or rhMIF to yield final concentrations of <0.1% DMSO, 100 ng/ml LPS and the compound concentration of interest. The potency of the compound candidates in inhibiting cytokine production is compared, to other small molecule MIF inhibitor standards ISO-1 (EMD Chemicals) N-acetyl-p-benzoquinone imine (NAPQI) and Ibudilast (TCI America). Cells were incubated for 20 hours at 37° C., 5% CO2. For the Th17-specific cytokine production assay, cells are stimulated with 5 ug/mL plate immobilized anti-CD3 (eBioscience) and 2 ug/mL soluble anti-CD28 (eBioscience) in the presence or absence of inhibitor compounds dissolved in DMSO to yield final compound concentrations of interest at <0.1% DMSO. Cells were incubated for 72 hours at 37° C. and 5% CO2. The supernatants are stored at −20° C. until they are to be assayed by ELISA. Cell viability is determined using PrestoBlue™ Cell Viability Reagent (Invitrogen). The cytokine production levels of TNF-α, IL-1β, IL-6, IL-8, IL-17F and IL-22 are determined using commercial ELISA kits (eBiosciences). Human Rheumatoid Arthritis Synovial Fibroblast (RASF) Cell Line: RASF cells are cultured in Dulbecco's modified Eagle's medium with 15% FBS, 1% glutamine, and 1% penicillin/streptamycin (all from Gibco (Invitrogen), Gaithersburg, Md.). […]

Native human MIF = target: T1, Native human MIF (Homo sapiens, UniProt P14174); test: MIF tautomerase activity assay (HPP substrate); assay type: biochemical; settings: absorbance at 300 nm
T1 sequence (P14174 2-115 limits assumed): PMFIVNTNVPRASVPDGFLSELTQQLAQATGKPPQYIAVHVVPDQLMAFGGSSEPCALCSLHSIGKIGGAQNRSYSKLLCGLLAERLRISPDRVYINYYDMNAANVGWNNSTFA
Description: The ability of candidate compounds to inhibit this tautomerase activity is quantitated by wing hydroxyphenyl pyruvic acid (HPP) as a substrate and following the increase in absorbance due to the enzymatic formation of the HPP enol-borate complex at 300 nm in the absence and presence of a test compound. The IC50 value of compounds was determined by plotting the initial velocities determined at 300 nm as a function of a test compound's concentration. Assays were carried out in a 96 or 384 well plate format.
Representative MIF inhibitors were tested in the assay described above and the results tabulated in Table 1 wherein “A” represents ≦1 μM; “B” represents >1 μM and ≦100 μM; “C” represents >100 μM

[1] = LPS-stimulated PBMCs, compound at 2.5 uM, 1 hour preincubation, 20 hours, read-out: percent inhibition of IL-1β production
[2] = LPS-stimulated PBMCs, compound at 2.5 uM, 1 hour preincubation, 20 hours, read-out: percent inhibition of IL-6 production
[3] = LPS-stimulated PBMCs, compound at 2.5 uM, 1 hour preincubation, 20 hours, read-out: percent inhibition of IL-8 production
[4] = LPS-stimulated PBMCs, compound at 2.5 uM, 1 hour preincubation, 20 hours, read-out: percent inhibition of TNF-α production
[5] = LPS-stimulated PBMCs, compound at 25 uM, 1 hour preincubation, 20 hours, read-out: percent inhibition of IL-1β production
[6] = LPS-stimulated PBMCs, compound at 25 uM, 1 hour preincubation, 20 hours, read-out: percent inhibition of IL-6 production
[7] = LPS-stimulated PBMCs, compound at 25 uM, 1 hour preincubation, 20 hours, read-out: percent inhibition of IL-8 production
[8] = LPS-stimulated PBMCs, compound at 25 uM, 1 hour preincubation, 20 hours, read-out: percent inhibition of TNF-α production
[9] = read-out: percent inhibition of IL-1β production
[10] = read-out: percent inhibition of IL-6 production
[11] = read-out: percent inhibition of IL-8 production
[12] = read-out: percent inhibition of TNF-α production
[13] = LPS-stimulated PBMCs, ISO-1 at 5.0 uM, 20 hours
[14] = LPS-stimulated PBMCs, ISO-1 at 50 uM, 20 hours

SMILES | inhibition at 2.5 µM (LPS-stimulated PBMCs; [1]) | inhibition at 2.5 µM (LPS-stimulated PBMCs; [2]) | inhibition at 2.5 µM (LPS-stimulated PBMCs; [3]) | inhibition at 2.5 µM (LPS-stimulated PBMCs; [4]) | inhibition at 25 µM (LPS-stimulated PBMCs; [5]) | inhibition at 25 µM (LPS-stimulated PBMCs; [6]) | inhibition at 25 µM (LPS-stimulated PBMCs; [7]) | inhibition at 25 µM (LPS-stimulated PBMCs; [8]) | IC50 (Native human MIF) | other results
CC(C)C(=O)c1c(C(C)C)nn2ccccc12 [Ibudilast, reference compound] | 50 to 70% | < 10% | < 10% | > 70% | > 70% | < 10% | < 10% | > 70% |  | 
Cn1c(=O)c(C#N)c(NC2CN(C(=O)c3cccs3)C2)c2ccccc21 [Compound 6] | 10 to 50% | 10 to 50% | < 10% | 10 to 50% | 10 to 50% | 10 to 50% | < 10% | 10 to 50% | ≤ 1000 nM | 
CC(=O)N=C1C=CC(=O)C=C1 [NAPQI, N-acetyl-p-benzoquinone imine, reference compound] |  |  |  |  |  |  |  |  |  | inhibition at 2.5 µM (LPS-stimulated PBMCs; [9]): 10 to 50%; inhibition at 25 µM (LPS-stimulated PBMCs; [9]): > 70%; inhibition at 2.5 µM (LPS-stimulated PBMCs; [10]): < 10%; inhibition at 25 µM (LPS-stimulated PBMCs; [10]): < 10%; inhibition at 2.5 µM (LPS-stimulated PBMCs; [11]): < 10%; inhibition at 25 µM (LPS-stimulated PBMCs; [11]): < 10%; inhibition at 2.5 µM (LPS-stimulated PBMCs; [12]): < 10%; inhibition at 25 µM (LPS-stimulated PBMCs; [12]): > 70%
N#Cc1c(NC2CN(C(=O)c3cccs3)C2)c2ccccc2n(Cc2ccc(F)cc2)c1=O [Compound 8] | 50 to 70% | < 10% | < 10% | 10 to 50% | > 70% | 10 to 50% | < 10% | 10 to 50% | ≤ 1000 nM | 
COC(=O)CC1CC(c2ccc(O)cc2)=NO1 (stereo not drawn) [ISO-1, reference compound] |  |  |  |  |  |  |  |  |  | percent inhibition of IL-1β production (LPS-stimulated PBMCs; [13]): F (“F” represents >50% inhibition and ≦70% inhibition); percent inhibition of IL-6 production (LPS-stimulated PBMCs; [13]): D (“D” represents ≦10% inhibition); percent inhibition of IL-8 production (LPS-stimulated PBMCs; [13]): D (“D” represents ≦10% inhibition); percent inhibition of TNF-α production (LPS-stimulated PBMCs; [13]): E (“E” represents >10% inhibition and ≦50% inhibition); percent inhibition of IL-1β production (LPS-stimulated PBMCs; [14]): G (“G” represents >70% inhibition); percent inhibition of IL-6 production (LPS-stimulated PBMCs; [14]): F (“F” represents >50% inhibition and ≦70% inhibition); percent inhibition of IL-8 production (LPS-stimulated PBMCs; [14]): E (“E” represents >10% inhibition and ≦50% inhibition); percent inhibition of TNF-α production (LPS-stimulated PBMCs; [14]): G (“G” represents >70% inhibition)

— patent publication US9133164B2, “MIF inhibitors and their uses” (INNOV88 LLC, priority 2011, dated 2015)
